# Data published in US12576084B2, “Methods for treating testicular and ovarian adrenal rest tumors” (Spruce Biosciences, Inc., priority 2018, dated 2026).
# Assays:
# [1] = Phase 2 study in classic CAH: pharmacokinetics; format: in vivo, human; conditions: 200 to 1000 mg QD, patients with CAH
# Text: FIG. 2. Graphic representation of pharmacokinetics (dose-proportional, adequate exposure at safe doses) in patients with CAH following 14-days of once daily dosing at each dose level with a CRF1 antagonist (Compound 1).
# FIG. 3. Graphic representation of pharmacokinetics (dose-proportional, adequate exposure at safe doses) in patients with CAH following 14-days of once daily dosing at each dose level with a CRF1 antagonist (Compound 1).
# (§1) An ongoing Phase 2 open-label study (Study Compound 2) is currently evaluating the safety and efficacy of Compound 1 dosed once daily for 6 weeks in adults with classic CAH. In the initial Cohort A of this study, all subjects are dosed starting at 200 mg/day for 14 days, escalating for each subject to 600 mg/day for 14 days, then 1000 mg/day for 14 days if the subject experiences no DLTs at the previous dose level. (FIGS. 2-3).
# (§2) The objectives of the study are: to assess the ability of Compound 1 to reduce excess ACTH and adrenal steroid production in participants with classic CAH on a stable gluococorticoid regimen; to evaluate the safety and tolerability of tildacerfont in participants with classic CAH; and to evaluate the pharmacokinetics (PK) of tildacerfont.
# [2] = test system: male rats; assay: Fertility toxicology study in male rats; format: in vivo, rat
# Description: Additionally, a fertility toxicology study was conducted in rats. In this study, male rats were administered oral Compound 1 once daily at 0, 5, 20, or 1000 mg/kg for 85 to 87 days (70 days before mating, during mating, and ≤4 days between mating and necropsy). Male reproductive performance (mean day of mating, mating and fertility indices, and conception rates) was unaffected by Compound 1 treatment.
# [3] = test system: beagle dogs; assay: Repeat-dose oral toxicology study, 91 days, beagle dogs; format: in vivo, dog
# Text: (§3) The nonclinical safety profile of Compound 1 has been evaluated in repeat-dose range-finding and definitive toxicology studies of up to 91 days in duration in rats and dogs using the clinically relevant route (oral) and schedule of administration (once daily).
# [4] = test system: participants with classic CAH; assay: Phase 2 study in classic CAH: safety and tolerability; format: in vivo, human; conditions: across both cohorts
# Description: as §1, §2
# (§4) One participant withdrew early because of an occupation-related scheduling conflict. In Cohort B, 9 participants were enrolled and received at least one dose of Compound 1. […] Thus, baseline characteristics are calculated for n=8 in Cohort B. One participant in Cohort B was taking both HC and prednisone.
# [5] = test system: rats; assay: Repeat-dose oral toxicology study, 91 days, rats; format: in vivo, rat
# Text: as §3
# [6] = test system: ACTH, 17OHP and androstenedione (A4) in participants with classic CAH; assay: Phase 2 open-label study in adults with classic CAH: change in ACTH, 17OHP and A4; format: in vivo, human
# Description: as §1
# 30% of subjects were in the normal range (*) after treatment with a CRF1 receptor antagonist.
# 50% of subjects were in the guideline range (*; 1200 ng/dL) after treatment with a CRF1 receptor antagonist.
# 50% of subjects were within the normal reference range after treatment with a CRF1 receptor antagonist.
# as §2
# • Adult males and females 18 years or older • Diagnosis of classic CAH due to 21-hydroxylase deficiency • Morning 17OHP≥800 ng/dL, before taking any morning GC dose • On a stable regimen of gluococorticoid replacement for ≥30 days before enrollment Exclusion Criteria: • Clinically significant unstable medical condition, illness, or chronic disease within 30 days of screening • Clinically significant psychiatric disorder • History of bilateral adrenalectomy or hypopituitarism Study Design
# FIG. 14 depicts the proof of concept and escalating QD dosing at 10 PM for Cohort A and the single dose level and BID dosing at 10 AM and 10 pm for Cohort B.
# as §4
# [7] = test system: testicular adrenal rest tumors (TART); assay: TART size pre-treatment vs 6 weeks post-treatment in a patient with classic CAH; format: in vivo, human; conditions: person with classic CAH, 6 weeks treatment
# Text: FIG. 10A-10B. Images of a patient with TART pre-treatment with a CRF1 antagonist (Compound 1) (A) and 6-weeks post-treatment with a CRF1 antagonist (Compound 1) (B).
# FIGS. 10A-10B show approximately 25% shrinkage in TART in a person with classic congenital adrenal hyperplasia following 6 weeks treatment with a CRF1 receptor antagonist.
# [8] = test system: healthy volunteers; assay: Phase 1 studies in healthy volunteers: safety and tolerability; format: in vivo
# Text: Clinical laboratory measures of testicular function (LH, FSH, inhibin B, and SHBG) will be assessed throughout this study to monitor the risk of testicular injury. Testicular ultrasounds and semen analysis will also be performed at screening/baseline and the end of the treatment period.
# Clinical laboratory measures of liver chemistry will be assessed throughout this study, and strict individual treatment stopping criteria for liver chemistry findings are in place.
# [9] = test system: CRF-induced locomotor behavior; assay: CRF-induced locomotor behavior after i.c.v. administration of CRF; format: in vivo; conditions: oral, 10 mg/kg
# Description: (§5) FIG. 11A-11B. Graphic representation of an […] binding assay of a CRF1 antagonist (Compound 1); ^125I-sauvagine binding to rat cerebellar membranes one hour after oral administration of increasing Compound 1 doses (A) and in vivo inhibition of CRF-induced activity after treatment with a CRF1 antagonist; Compound 1 (oral, 10 mg/kg) (B).
# [10] = Phase 1 studies in healthy volunteers: pharmacokinetics; format: in vivo
# Description: The specification of study drug dosing at 10 pm and after consumption of a snack is based on information from the Phase 1 studies in healthy volunteers. The plasma Cmax (maximum concentration) for Compound 1 in the Phase 1 studies occurred approximately 5 hours after dosing. Therefore, Compound 1 will be dosed daily at 10 pm in this study in order to achieve peak plasma study drug concentration at the time of day when most adrenal androgens are produced. […] Specific dose reduction criteria, strict individual treatment stopping criteria, and appropriate laboratory and medical assessments have been established to ensure subject safety. (FIGS. 1A-1B).
# To date, a total of 53 subjects, all healthy adults aged 21 to 65 years, have been treated with at least 1 dose of Compound 1 in 2 Phase 1 studies. The first-in-human study of Compound 1 (Study I3C-FW-BLAA) evaluated single ascending doses of 2 mg to 800 mg. […] A subsequent study (Study I3C-FW-BLAB) evaluated repeat doses of 50 mg, 100 mg, or 200 mg Compound 1 once daily for 14 consecutive days.
# [11] = biological target: T1, CRF1 receptor (Homo sapiens, UniProt P34998); assay: In vitro and ex vivo CRF1 receptor binding studies
# T1 sequence (P34998 24-415): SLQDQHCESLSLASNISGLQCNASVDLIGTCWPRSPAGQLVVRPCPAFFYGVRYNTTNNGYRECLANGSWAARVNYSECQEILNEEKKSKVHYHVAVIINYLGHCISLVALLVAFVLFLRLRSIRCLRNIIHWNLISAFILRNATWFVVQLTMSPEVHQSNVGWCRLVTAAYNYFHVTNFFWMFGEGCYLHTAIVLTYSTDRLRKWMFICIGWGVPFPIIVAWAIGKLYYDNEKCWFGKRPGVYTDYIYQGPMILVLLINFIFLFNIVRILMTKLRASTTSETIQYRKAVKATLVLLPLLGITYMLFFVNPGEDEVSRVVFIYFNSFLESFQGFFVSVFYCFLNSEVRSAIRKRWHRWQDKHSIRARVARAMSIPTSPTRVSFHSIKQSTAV
# Description: as §5
# [12] = Nonclinical studies: liver function tests; format: in vivo; conditions: significantly higher doses
# Text: However, these events were not observed in the Phase 1 clinical studies. Clinical laboratory measures of liver chemistry will be assessed throughout this study, and strict individual treatment stopping criteria for liver chemistry findings are in place.
# [13] = biological target: T1, CRF1 receptor; assay: Inhibition of adenylate cyclase activity (CRF1 receptor-mediated downstream cascade); format: biochemical; conditions: in vitro
# [14] = CAH subjects, FIGS. 4 and 5A-5B
# [15] = CAH subjects, FIGS. 6 and 7A-7B
# [16] = CAH subjects, FIGS. 8 and 9A-9B
# [17] = Cohort A (200, 600, 1000 mg QD)
# [18] = healthy human subjects, Phase 1
compound,measurement,setting,value
"CCC(CC)c1cc(C)nc2c(-c3sc(N4CCOCC4)nc3Cl)c(C)nn12 [Compound 1, tildacerfont]",PK profile,[1],"predictable, dose-dependent PK profile"
same,"male reproductive performance (mean day of mating, mating and fertility indices, conception rates)","[2]; male rats, oral once daily 5, 20 or 1000 mg/kg for 85 to 87 days",unaffected
same,impairment in fertility,"[2]; male reproductive studies in rodents, highest dose tested 1,000 mg/kg/day",no impairment in fertility
same,ovarian and uterine effects in untreated females mated with treated males,[2]; rats,no ovarian and uterine effects
same,reversibility of findings,"[3]; beagle dogs, 6-week treatment-free recovery period",reversible
same,toxicologic findings,"[3]; beagle dogs, oral once daily, 91 days, up to 2000 mg/kg/day",all mild and limited to the male reproductive tract
same,effects on the thyroid gland,"[3]; dogs, 91 days, high-dose 2,000 mg/kg/day",effects on the thyroid gland were noted
same,testicular effects,"[3]; dogs, high-dose 2,000 mg/kg/day",reversible testicular effects (degeneration/atrophy)
same,most common type of adverse event (AE),[4],gastrointestinal disorders
same,serious AEs and AEs leading to withdrawal,[4],no serious AEs and no AEs leading to withdrawal
same,tolerability,[4],generally well tolerated
same,reversibility of findings,[5]; 6-week treatment-free recovery period,reversible
same,testicular effects,"[5]; high-dose 2,000 mg/kg/day",reversible testicular effects (degeneration/atrophy)
same,toxicologic findings,"[5]; oral once daily, 91 days, up to 2000 mg/kg/day",all mild and limited to the male reproductive tract
same,subjects in the normal range for ACTH after treatment,[6]; [14],30 % of subjects
same,subjects who demonstrated >25% reduction in ACTH,[6]; [14],70 % of subjects
same,subjects who demonstrated reduction in ACTH,[6]; [14],80 % of subjects
same,subjects in the guideline range (1200 ng/dL) for 17-OHP after treatment,[6]; [15],50 % of subjects
same,subjects who demonstrated >25% reduction in ACTH (printed in the 17-OHP paragraph),[6]; [15],50 % of subjects
same,subjects who demonstrated reduction in 17-OHP,[6]; [15],80 % of subjects
same,subjects who demonstrated >25% reduction in androstenedione,[6]; [16],60 % of subjects
same,subjects within the normal reference range for androstenedione after treatment,[6]; [16],50 % of subjects
same,subjects who demonstrated reduction in androstenedione,"[6]; CAH subjects, at various doses, FIGS. 8 and 9A-9B",100 % of subjects
same,participants whose levels of 17OHP improved at ≥1 dose level,[6]; [17],8 out of 10
same,participants whose levels of A4 improved at ≥1 dose level,[6]; [17],10 out of 10
same,participants whose levels of ACTH improved at ≥1 dose level,[6]; [17],8 out of 10
same,Percentage change from baseline in 17OHP,"[6]; Cohort A, 200 mg QD (Week 2)",+22.2 (±172.3) %
same,Percentage change from baseline in A4,"[6]; Cohort A, 200 mg QD (Week 2)",−12.1 (±47.4) %
same,Percentage change from baseline in ACTH,"[6]; Cohort A, 200 mg QD (Week 2)",−25.7 (±51.6) %
same,Percentage change from baseline in 17OHP,"[6]; Cohort A, 600 mg QD (Week 4)",−23.7 (±64.2) %
same,Percentage change from baseline in A4,"[6]; Cohort A, 600 mg QD (Week 4)",−33.2 (±36.5) %
same,Percentage change from baseline in ACTH,"[6]; Cohort A, 600 mg QD (Week 4)",−60.1 (±37.5) %
same,Percentage change from baseline in 17OHP,"[6]; Cohort A, 1000 mg QD (Week 6)",−13.8 (±74.7) %
same,Percentage change from baseline in A4,"[6]; Cohort A, 1000 mg QD (Week 6)",−28.6 (±44.6) %
same,Percentage change from baseline in ACTH,"[6]; Cohort A, 1000 mg QD (Week 6)",−32.7 (±47.0) %
same,participants whose levels of 17OHP improved at ≥1 dose level,[6]; Cohort B (200 mg BID),6 out of 7
same,participants whose levels of A4 improved at ≥1 dose level,[6]; Cohort B (200 mg BID),6 out of 8
same,participants whose levels of ACTH improved at ≥1 dose level,[6]; Cohort B (200 mg BID),5 out of 7
same,Percentage change from baseline in 17OHP,"[6]; Cohort B, 200 mg BID (Weed 2)",−47.8 (±63.3) %
same,Percentage change from baseline in A4,"[6]; Cohort B, 200 mg BID (Weed 2)",−16.0 (±81.4) %
same,Percentage change from baseline in ACTH,"[6]; Cohort B, 200 mg BID (Weed 2)",−36.5 (±58.0) %
same,shrinkage in TART,[7],approximately 25%
same,laboratory abnormalities in liver function tests (LFTs),[8]; Phase 1 clinical studies,not observed
same,"alterations in safety laboratory values, vital signs, or electrocardiograms (ECGs)",[8]; Phase 1 studies,no clinically significant alterations
same,"adverse events, single ascending doses","[8]; Study I3C-FW-BLAA, 2 mg to 800 mg, small number of subjects",diarrhea and headache of mild or moderate severity
same,"adverse events, repeat doses","[8]; Study I3C-FW-BLAB, 50, 100 or 200 mg once daily for 14 days, small number of subjects","dyspnea, rhinorrhea, palpitations, and headache"
same,"SAEs, AEs leading to discontinuation, dose-limiting toxicities",[8]; [18],"no SAEs, AEs leading to discontinuation, or dose-limiting toxicities (DLTs)"
same,tolerability,[8]; [18],well tolerated
same,effects on clinical laboratory markers of testicular function (LH and FSH),"[8]; healthy male volunteers, up to 200 mg per day for 14 consecutive days",no effects
same,maximum tolerated dose,[8]; humans,has not been reached
same,inhibition of CRF-induced locomotor behavior,[9],significantly inhibit
same,study drug absorption in a fasted state,[10],minimal study drug absorption
same,affinity and selectivity for the hCRF1 receptor,[11],high affinity and selective for the hCRF1 receptor
same,laboratory abnormalities in liver function tests (LFTs),[12],have been observed at significantly higher doses
same,inhibition of adenylate cyclase activity,[13],functional potency to inhibit adenylate cyclase activity
